Measured values published in paper PMC12491518, “Fabrication of cytotoxic mirror image nanopores” (Nature Communications, 2025).
Where a SMILES comes first, the peptide text is derived from it. [ ]: non-standard residue; d: D form.

How the values were obtained:
[1] = GUV-based molecular transport assay; type: biochemical; conditions: 100 mM KCl 10 mM HEPES pH 7.4, mean ± S.D., N = 4 batches
Method: The giant unilamellar vesicles (GUVs) were constructed using gel-assisted swelling methodology and labeled with 0.05 mol% ATTO 550 DOPE[27],[44],[61]. Thin lipid films were spread on polyvinyl alcohol (PVA) coated glass slides using 30 µL of a 1 mg/mL solution of DOPC (Cis and Ent lipids prepared separately). […] The successful formation of vesicles was verified in real time by phase-contrast microscopy. To study the transport across DpPorA and DpPorA DE pores, the peptides were added to GUVs (at a concentration of 10–15 µM in 0.1% DDM) along with the fluorescent hydrophilic molecules (namely Alexa Fluor 350 Hydrazide: M.W-349 Da, Alexa Fluor 555 Hydrazide: M.W-1150 Da, ATTO 488 Dextran: M.W-3000 Da)[62]. The uptake of fluorescent molecules was monitored over 40 min, with time-lapse imaging at every minute for the first 10 min and then at every 5 min for the following 30 min, tracking either single vesicles or multiple vesicles within the same field of view. Later on, individual vesicles were further scanned and imaged to obtain datasets for statistical analysis. Control experiments were conducted under identical conditions using vesicles prepared with the same detergent concentration but without peptide incorporation. At each time point, the vesicle images were blank-subtracted, and the intensity inside the vesicle ( Iin ) was normalized against the intensity outside ( Iout )[27]. Complete permeabilization of the vesicles was marked by Iin/Iout ≥ 0.98 for peptide-reconstituted vesicles, while Iin/Iout ≥ 0.95 was considered as the cut-off for permeabilization in the control vesicles.

[2] = Ion selectivity measurement under asymmetric KCl (reverse potential, Goldman-Hodgkin-Katz); type: biochemical; conditions: 0.15 M KCl cis / 1 M KCl trans
Method: High-resolution electrical recordings for the single-channel characterization were conducted in planar lipid bilayers made up of 1,2-diphytanoyl-sn-glycero-3-phosphocholine (DPhPC, Avanti Polar Lipids)[23],[27],[51]. The lipid bilayer is formed across a polytetrafluoroethylene (Teflon) aperture of ~100 µm in diameter. Teflon is placed between the two sides of the Delrin bilayer chamber, partitioning it into cis and trans compartments (600 µL each). For constructing a solvent-free lipid bilayer, the aperture is made lipophilic by pre-painting both sides with hexadecane in n-pentane (1 μL, 5 mg mL^−1)[51]. After ~10 min, the chambers were filled with buffered electrolytes (1 M KCl, 10 mM HEPES, pH 7.4), and DPhPC in n-pentane (1 μL, 5 mg mL^−1) was added. After ~15 min incubation, the lipid bilayer is formed by raising and lowering the electrolyte solution, bringing the two lipid monolayers together at the aperture. […] Ion selectivity was assessed under asymmetric salt conditions with a KCl concentration gradient across the planar lipid bilayer (0.15 M cis/1 M trans) (SI text)[27]. The ion current was acquired and amplified using an Axopatch 200B amplifier, digitized with Digidata 1550B digitizer, and recorded using the pClamp 11 acquisition software (Molecular Devices, CA). […]

[3] = DOPC (Cis-DOPC) GUVs, peptide 10 to 15 µM in 0.1% DDM

SMILES	percentage of permeabilization, ATTO 488 Dextran [1, 3]	percentage of permeabilization, Alexa Fluor 350 [1, 3]	percentage of permeabilization, Alexa Fluor 555 [1, 3]	reverse potential (Vm) [2]	percentage of permeabilization, ATTO 488 Dextran ([1]; Ent-DOPC GUVs, 0.1% DDM)	percentage of permeabilization, Alexa Fluor 350 ([1]; Ent-DOPC GUVs, 0.1% DDM)	percentage of permeabilization, Alexa Fluor 555 ([1]; Ent-DOPC GUVs, 0.1% DDM)
CC[C@@H](C)[C@@H](NC(=O)[C@H](N)CCSC)C(=O)N[C@H](CC(=O)O)C(=O)N[C@H](CCC(N)=O)C(=O)N[C@@H](C(=O)N[C@@H](C(=O)N[C@H](CCC(=O)O)C(=O)N[C@@H](C(=O)N[C@H](Cc1ccccc1)C(=O)NCC(=O)N[C@H](CCC(N)=O)C(=O)N[C@H](CC(C)C)C(=O)NCC(=O)N[C@@H](C(=O)N[C@H](Cc1ccccc1)C(=O)N[C@H](CC(C)C)C(=O)NCC(=O)NCC(=O)N[C@H](Cc1ccccc1)C(=O)NCC(=O)N[C@H](CC(N)=O)C(=O)N[C@@H](C(=O)N[C@H](Cc1ccccc1)C(=O)N[C@H](CCCCN)C(=O)NCC(=O)N[C@H](CC(C)C)C(=O)N[C@H](CCCCN)C(=O)N[C@H](C)C(=O)N[C@@H](C(=O)N[C@@H](C(=O)N[C@H](C)C(=O)N[C@@H](C(=O)N[C@@H](C(=O)N[C@@H](C(=O)N[C@H](CCCCN)C(=O)N[C@H](Cc1c[nH]c2ccccc12)C(=O)N[C@@H](C(=O)N[C@H](C)C(=O)N[C@H](C)C(=O)N[C@H](CCCCN)C(=O)O)[C@H](C)O)C(C)C)[C@H](C)CC)[C@H](C)O)[C@H](C)CC)C(C)C)[C@H](C)CC)[C@H](C)O)[C@H](C)CC)[C@H](C)O)[C@H](C)CC [DpPorA DE] (H-[dM][dI][dD][dQ][dI][dT][dE][dI][dF]G[dQ][dL]G[dT][dF][dL]GG[dF]G[dN][dI][dF][dK]G[dL][dK][dA][dV][dI][dA][dT][dI][dV][dK][dW][dT][dA][dA][dK]-OH; N-terminus and C-terminus assumed)	53.8 ± 8%	89.2 ± 3.7%	71.3 ± 3.5%	+40 mV			
CC[C@@H](C)[C@@H](NC(=O)[C@H](N)CCSC)C(=O)N[C@H](CC(=O)O)C(=O)N[C@H](CCC(N)=O)C(=O)N[C@@H](C(=O)N[C@@H](C(=O)N[C@H](CCC(=O)O)C(=O)N[C@@H](C(=O)N[C@H](Cc1ccccc1)C(=O)NCC(=O)N[C@H](CCC(N)=O)C(=O)N[C@H](CC(C)C)C(=O)NCC(=O)N[C@@H](C(=O)N[C@H](Cc1ccccc1)C(=O)N[C@H](CC(C)C)C(=O)NCC(=O)NCC(=O)N[C@H](Cc1ccccc1)C(=O)NCC(=O)N[C@H](CC(N)=O)C(=O)N[C@@H](C(=O)N[C@H](Cc1ccccc1)C(=O)N[C@H](CCCCN)C(=O)NCC(=O)N[C@H](CC(C)C)C(=O)N[C@H](CCCCN)C(=O)N[C@H](CC(=O)O)C(=O)N[C@@H](C(=O)N[C@@H](C(=O)N[C@H](CCC(=O)O)C(=O)N[C@@H](C(=O)N[C@@H](C(=O)N[C@@H](C(=O)N[C@H](CCCCN)C(=O)N[C@H](Cc1c[nH]c2ccccc12)C(=O)N[C@@H](C(=O)N[C@H](C)C(=O)N[C@H](C)C(=O)N[C@H](CCCCN)C(=O)O)[C@H](C)O)C(C)C)[C@H](C)CC)[C@H](C)O)[C@H](C)CC)C(C)C)[C@H](C)CC)[C@H](C)O)[C@H](C)CC)[C@H](C)O)[C@H](C)CC [DpPorA] (H-[dM][dI][dD][dQ][dI][dT][dE][dI][dF]G[dQ][dL]G[dT][dF][dL]GG[dF]G[dN][dI][dF][dK]G[dL][dK][dD][dV][dI][dE][dT][dI][dV][dK][dW][dT][dA][dA][dK]-OH; N-terminus and C-terminus assumed)	73.0 ± 14.1%	88.9±7.8%	67.9± 10.4%	+21 mV	72.70±14.61%	95.13±3.54%	70.38±4.93%
